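Results reflect a 48-hour exposure of cells in 96-well plates to compound at five concentrations. At the GI50, growth is halved.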 Active and inactive are the calls of the source. Cut-off read from the data, not from the text of the source: active = GI50 up to about 1.1 µM and inactive = higher.
Columns and labels:
Test in all cases: NCI-60 cell line screen, 48 h
BT-549 = test system: BT-549
SF-295 = test system: SF-295
A498 = test system: A498
HL-60 = test system: HL-60
SNB-75 = test system: SNB-75
786-0 = test system: 786-0
UACC-257 = test system: UACC-257
CAKI-1 = test system: CAKI-1
OVCAR-5 = test system: OVCAR-5
PC-3 = test system: PC-3
NCI-H522 = test system: NCI-H522
Hs-578T = test system: Hs-578T
Malme-3M = test system: Malme-3M
CCRF-CEM = test system: CCRF-CEM
NCI-H23 = test system: NCI-H23
LOX IMVI = test system: LOX IMVI
OVCAR-3 = test system: OVCAR-3
NCI/ADR-RES = test system: NCI/ADR-RES
MDA-MB-231 = test system: MDA-MB-231
SK-MEL-5 = test system: SK-MEL-5
SK-MEL-2 = test system: SK-MEL-2
KM12 = test system: KM12
COLO 205 = test system: COLO 205
MDA-N = test system: MDA-N
T47D = test system: T47D
TK-10 = test system: TK-10
RPMI-8226 = test system: RPMI-8226
HCT-116 = test system: HCT-116
EKVX = test system: EKVX
UO-31 = test system: UO-31
SR = test system: SR
UACC-62 = test system: UACC-62
MCF7 = test system: MCF7
A549 = test system: A549
NCI-H460 = test system: NCI-H460
SK-MEL-28 = test system: SK-MEL-28
IGROV-1 = test system: IGROV-1
SNB-19 = test system: SNB-19
DU-145 = test system: DU-145
ACHN = test system: ACHN
HCT-15 = test system: HCT-15
HOP-62 = test system: HOP-62
MDA-MB-435 = test system: MDA-MB-435
SW-620 = test system: SW-620
RXF 393 = test system: RXF 393
HOP-92 = test system: HOP-92
SF-268 = test system: SF-268
SK-OV-3 = test system: SK-OV-3
HCC 2998 = test system: HCC 2998
OVCAR-8 = test system: OVCAR-8
SF-539 = test system: SF-539
NCI-H226 = test system: NCI-H226
SN12C = test system: SN12C
OVCAR-4 = test system: OVCAR-4
K562 = test system: K562
U-251 = test system: U-251
HT-29 = test system: HT-29
MOLT-4 = test system: MOLT-4

Measured: GI50

CC(/C=N/N(C)C1=NCCCCN1)=N/N(C)C1=NCCCCN1
> 100 µM: HCT-15
inactive: BT-549 > 100 µM | SF-295 > 100 µM | A498 97.9 µM | HL-60 > 100 µM | SNB-75 > 100 µM | 786-0 > 100 µM | UACC-257 > 100 µM | CAKI-1 > 100 µM | OVCAR-5 > 100 µM | PC-3 > 100 µM | NCI-H522 > 100 µM | Hs-578T > 100 µM | Malme-3M > 100 µM | CCRF-CEM > 100 µM | NCI-H23 > 100 µM | LOX IMVI > 100 µM | OVCAR-3 > 100 µM | NCI/ADR-RES > 100 µM | MDA-MB-231 > 100 µM | SK-MEL-5 > 100 µM | SK-MEL-2 > 100 µM | KM12 > 100 µM | COLO 205 > 100 µM | MDA-N > 100 µM | T47D > 100 µM | TK-10 > 100 µM | RPMI-8226 > 100 µM | HCT-116 > 100 µM | EKVX > 100 µM | UO-31 > 100 µM | SR > 100 µM | UACC-62 > 100 µM | MCF7 > 100 µM | A549 > 100 µM | NCI-H460 > 100 µM | SK-MEL-28 > 100 µM | IGROV-1 > 100 µM | SNB-19 > 100 µM | DU-145 > 100 µM | ACHN > 100 µM | HOP-62 > 100 µM | MDA-MB-435 > 100 µM | SW-620 > 100 µM | RXF 393 > 100 µM | HOP-92 > 100 µM | SF-268 > 100 µM | SK-OV-3 > 100 µM | HCC 2998 > 100 µM | OVCAR-8 > 100 µM | SF-539 > 100 µM | NCI-H226 > 100 µM | SN12C > 100 µM | OVCAR-4 > 100 µM | K562 > 100 µM | U-251 > 100 µM | HT-29 > 100 µM | MOLT-4 > 100 µM

CCOC(=O)c1ccc(Nc2cnc3cc(C(F)(F)F)ccc3n2)cc1
> 100 µM: HCT-15
inactive: BT-549 > 100 µM | SF-295 > 100 µM | A498 > 100 µM | HL-60 > 100 µM | SNB-75 44.9 µM | 786-0 40.3 µM | UACC-257 > 100 µM | CAKI-1 > 100 µM | OVCAR-5 > 100 µM | PC-3 > 100 µM | NCI-H522 > 100 µM | Hs-578T > 100 µM | Malme-3M > 100 µM | CCRF-CEM > 100 µM | NCI-H23 > 100 µM | LOX IMVI > 100 µM | OVCAR-3 > 100 µM | NCI/ADR-RES > 100 µM | MDA-MB-231 > 100 µM | SK-MEL-5 > 100 µM | KM12 85.1 µM | COLO 205 > 100 µM | MDA-N > 100 µM | T47D > 100 µM | TK-10 > 100 µM | RPMI-8226 > 100 µM | HCT-116 63 µM | EKVX > 100 µM | UO-31 > 100 µM | SR > 100 µM | UACC-62 > 100 µM | MCF7 > 10 µM | A549 > 100 µM | NCI-H460 > 100 µM | SK-MEL-28 85.9 µM | IGROV-1 > 100 µM | DU-145 > 100 µM | ACHN > 100 µM | HOP-62 > 100 µM | MDA-MB-435 > 100 µM | SW-620 > 100 µM | RXF 393 > 10 µM | HOP-92 > 100 µM | SF-268 > 100 µM | SK-OV-3 > 100 µM | HCC 2998 > 100 µM | OVCAR-8 > 100 µM | SF-539 79.6 µM | NCI-H226 > 100 µM | SN12C > 100 µM | OVCAR-4 > 100 µM | K562 > 100 µM | U-251 > 100 µM | HT-29 > 100 µM | MOLT-4 > 100 µM

Source: ChEMBL document CHEMBL1201862, “PubChem BioAssay data set” (2004)
